Assay results reported in patent US20160317420A1, “METHOD OF IMPROVING THE APPEARANCE OF SKIN AND COMPOSITIONS THEREFOR” (The Procter & Gamble Company, priority 2015, published 2016).

How the values were obtained:
[1] = system: glycation reaction between the gelatin and glyceraldehyde; assay: AGE Assay (in vitro suppression of AGE formation and yellowness reduction); format: biochemical; details: for % reduction in glycation rate vs. pos. ctrl.: 24-hr; for Δb* at 24-hr vs. 0-hour: blank-corrected yellowness; for ΔFLR at 24-hr vs. 0-hr: fluorescence 400/465 nm, 24 hours at 37° C.
Description: The anti-glycation ability of NR was determined as follows. Samples were prepared in a 96-well plate (3 replicates each) at a total volume of 250 μl/well. The test samples contained 112.5 μl of 2% w/v gelatin solution (commercially available from Sigma as Catalog # G1393-100 ML), 10 μl of 1 M glyceraldehyde (commercially available from Sigma as Catalog # G5001-1 G), 102.5 p1 Dulbecco's phosphate buffered saline (“DPBS”) (commercially available from Gibco's), and varying doses (0.1%, 0.5%, 1% and 5% w/v) of nicotinamide riboside chloride (“NR”) (available from Chromadex, Irvine, CA). The positive control contained 112.5 μl gelatin, 10 μl of 1 M glyceraldehyde and 127.5 μl DPBS. The negative control contained 112.5 μl gelatin and 137.5 μl DPBS. A 5% w/v niacinamide (“N”) composition was used for a benchmark comparison. The niacinamide sample contained the same amounts of gelatin, glyceraldehyde and DPBS as the 5% NR sample. The plate containing the test samples was placed in a CO2 incubator (e.g., THERMO SCIENTIFIC FORMA brand CO2 incubator available from Fisher Scientific, Waltham, Mass. or equivalent) and incubated for 24 hours at 37° C.
After 24 hours, the plate containing the test samples was removed from the incubator and placed in a SPECTRAMAX Plus brand spectrophotometer (available from Molecular Devices, Sunnyvale, Calif.). The spectrophotometer was set to detect fluorescence intensity (“FLR”) at 400/465 nm (ex/em). Glycation rate was determined by measuring FLR, at 0-hour (i.e., at the start of the test), 2-hour, 5-hour and 24-hour time points. The change in fluorescence intensity (“ΔFLR”) was determined by comparing the FLR of a well at a sampling time point to the 0-hour time point. To determine yellowness (i.e., b* value), a SPECTRAMAX Plus brand spectrophotometer was used to collect wavelength/absorbance pairs from 350 nm to 750 nm in 10 nm increments following the same time course as the FLR measurements (i.e., 0-hour, 2-hour, 5-hour and 24-hour). The wavelength/absorbance pairs were then converted to L*a*b* values by a computer using conversion software. The change in yellowness (“Ab*”) at a particular time point was determined by subtracting the b* value at the 0-hour time point from the b* value measured at the time point of interest. To correct for yellowness that is not due to the glycation reaction between the gelatin and glyceraldehyde, a blank well was set up for each treatment leg. The blank well contains every ingredient in the corresponding treatment leg except for the gelatin. The b* value of the blank well is subtracted from the b* value measured for each well before calculating the final Ab* value.

[2] = system: HMGB1 released from human neonatal keratinocytes exposed to CSE; assay: HMGB1 Assay (in vitro stress test, cigarette smoke extract); format: cell-based; details: 0.01% w/v + CSE; for AVG HMGB1 released: keratinocytes, 24 hours, ELISA; for effect on the amount of HMGB1 released by keratinocytes exposed to CSE, relative to CSE test medium: p<0.1 significant
Description: Human neonatal keratinocytes (available from Thermo) were placed in each well of four 12-well plates. Each well also contained 2 ml of EPILIFE brand keratinocyte medium. The plates were incubated at 37 ° C. in a CO2 incubator until cell confluency reached 70%. Once the cell confluency reached 70%, the keratinocyte medium in each well was replaced with the appropriate medium for the test (i.e., control medium, CSE test medium, niacinamide (“N”)+CSE test medium or nicotinamide riboside chloride (“NR”)+CSE test medium) to produce test samples. The resulting test samples were incubated for 24 hours at 37 ° C. in a CO2 incubator, after which the medium in each cell was removed and the HMGB 1 levels were determined using an ELISA kit from IBL according to the manufacturer's instructions.
The N and NR media were made by adding either niacinamide or nicotinamide riboside chloride (available from Chromadex, Irvine, Calif.) to EPILIFE brand keratinocyte medium to produce a 0.01% w/v solution. The cigarette smoke extract was made by suctioning a lit cigarette through a vacuum flask containing 60 mL of phosphate buffered saline (“PBS”). 4 CAMEL brand cigarettes with the filters cut off were used to create a batch of CSE. The CSE was diluted 1:20 using keratinocyte medium to create the CSE test medium. The N+CSE medium and NR+CSE medium were prepared by adding CSE test medium to final dilution of 1:6 (CSE:medium) and either N or NR to final dilution of 0.01% w/v. Unmodified keratinocyte medium was used as the control.

SMILES	% reduction in glycation rate vs. pos. ctrl. ([1]; 5% w/v)	Δb* at 24-hr vs. 0-hour ([1]; 5% w/v)	ΔFLR at 24-hr vs. 0-hr ([1]; 5% w/v)	AVG HMGB1 released [2]	effect on the amount of HMGB1 released by keratinocytes exposed to CSE, relative to CSE test medium [2]	% reduction in glycation rate vs. pos. ctrl. ([1]; 0.1% w/v)	Δb* at 24-hr vs. 0-hour ([1]; 0.1% w/v)	ΔFLR at 24-hr vs. 0-hr ([1]; 0.1% w/v)	% reduction in glycation rate vs. pos. ctrl. ([1]; 0.5% w/v)	Δb* at 24-hr vs. 0-hour ([1]; 0.5% w/v)	ΔFLR at 24-hr vs. 0-hr ([1]; 0.5% w/v)	% reduction in glycation rate vs. pos. ctrl. ([1]; 1% w/v)	Δb* at 24-hr vs. 0-hour ([1]; 1% w/v)	ΔFLR at 24-hr vs. 0-hr ([1]; 1% w/v)
NC(=O)c1cccnc1 [N, niacinamide, reference compound]	33.2%	9.19	2341	4.2790 ng/mL	no significant effect	–	–	–	–	–	–	–	–	–
NC(=O)c1ccc[n+]([C@@H]2O[C@H](CO)[C@@H](O)[C@H]2O)c1 [NR, nicotinamide riboside chloride]	98.8%	−2.09	41	2.0741 ng/mL	significantly reduce	22.2%	9.44	2729	63%	−4.24	1294	85.5%	−11.00	507
